From ChEMBL document CHEMBL1159053, “Synthesis and antifungal activities in vitro of novel pyrazino [2,1-a] isoquinolin derivatives” (2010)
In brackets after ≈: the same amount, converted by molar mass.

Columns and labels:
Assay type in all cases: functional
[1] = test system: Candida albicans; test: Antifungal activity against Candida albicans by serial dilution method
[2] = test system: Cryptococcus neoformans; test: Antifungal activity against Cryptococcus neoformans by serial dilution method
[3] = test system: Nannizzia gypsea; test: Antifungal activity against Microsporum gypseum by serial dilution method
[4] = test system: Aspergillus fumigatus; test: Antifungal activity against Aspergillus fumigatus by serial dilution method
[5] = test system: Trichophyton rubrum; test: Antifungal activity against Trichophyton rubrum by serial dilution method

## CCCCCCCCCCN1CCc2cc(O)c(O)cc2C1
[1]
  MIC80: 64 µg/mL (≈ 210 µM)
[2]
  MIC80: 16 µg/mL (≈ 52.4 µM)
[3]
  MIC80: 16 µg/mL (≈ 52.4 µM)
[4]
  MIC80: 64 µg/mL (≈ 210 µM)
[5]
  MIC80: 32 µg/mL (≈ 105 µM)

## CCCCN1CCN2CCc3ccc(F)cc3C2C1 (stereo not given)
[1]
  MIC80: 64 µg/mL (≈ 244 µM)
[2]
  MIC80: > 64 µg/mL
[3]
  MIC80: 4 µg/mL (≈ 15.2 µM)
[4]
  MIC80: > 64 µg/mL
[5]
  MIC80: > 64 µg/mL

## CCCCCCCCN1CC(=O)N2CCc3ccc(F)cc3C2C1 (stereo not given)
[1]
  MIC80: > 64 µg/mL
[2]
  MIC80: 16 µg/mL (≈ 48.1 µM)
[3]
  MIC80: 16 µg/mL (≈ 48.1 µM)
[4]
  MIC80: 32 µg/mL (≈ 96.3 µM)
[5]
  MIC80: 16 µg/mL (≈ 48.1 µM)

## CCCCN1CC(=O)N2CCc3cc(OC)c(OC)cc3C2C1 (stereo not given)
[1]
  MIC80: > 64 µg/mL
[2]
  MIC80: 16 µg/mL (≈ 50.2 µM)
[3]
  MIC80: > 64 µg/mL
[4]
  MIC80: > 64 µg/mL
[5]
  MIC80: > 64 µg/mL

## CCCCN1CC(=O)N2CCc3ccc(F)cc3C2C1 (stereo not given)
[1]
  MIC80: > 64 µg/mL
[2]
  MIC80: 32 µg/mL (≈ 116 µM)
[3]
  MIC80: > 64 µg/mL
[4]
  MIC80: > 64 µg/mL
[5]
  MIC80: 64 µg/mL (≈ 232 µM)

## CCCCCCCCN1CCN2CCc3cc(O)c(O)cc3C2C1 (stereo not given)
[1]
  MIC80: 16 µg/mL (≈ 48.1 µM)
[2]
  MIC80: 2 µg/mL (≈ 6.02 µM)
[3]
  MIC80: 32 µg/mL (≈ 96.2 µM)
[4]
  MIC80: 64 µg/mL (≈ 192 µM)
[5]
  MIC80: 16 µg/mL (≈ 48.1 µM)

## CCCCCCCCCN1CC(=O)N2CCc3cc(OC)c(OC)cc3C2C1 (stereo not given)
[1]
  MIC80: 64 µg/mL (≈ 165 µM)
[2]
  MIC80: 4 µg/mL (≈ 10.3 µM)
[3]
  MIC80: 2 µg/mL (≈ 5.15 µM)
[4]
  MIC80: 32 µg/mL (≈ 82.4 µM)
[5]
  MIC80: 32 µg/mL (≈ 82.4 µM)

## CCCCCCCCN1CCN2CCc3cc(OC)c(OC)cc3C2C1 (stereo not given)
[1]
  MIC80: 32 µg/mL (≈ 88.8 µM)
[2]
  MIC80: 8 µg/mL (≈ 22.2 µM)
[3]
  MIC80: 4 µg/mL (≈ 11.1 µM)
[4]
  MIC80: 8 µg/mL (≈ 22.2 µM)
[5]
  MIC80: 16 µg/mL (≈ 44.4 µM)

## CCCCCCCCN1CCN2CCc3ccc(F)cc3C2C1 (stereo not given)
[1]
  MIC80: 16 µg/mL (≈ 50.2 µM)
[2]
  MIC80: 4 µg/mL (≈ 12.6 µM)
[3]
  MIC80: 4 µg/mL (≈ 12.6 µM)
[4]
  MIC80: 32 µg/mL (≈ 100 µM)
[5]
  MIC80: 8 µg/mL (≈ 25.1 µM)

## CCCCCCCCCN1CCN2CCc3cc(O)c(O)cc3C2C1 (stereo not given)
[1]
  MIC80: 8 µg/mL (≈ 23.1 µM)
[2]
  MIC80: 4 µg/mL (≈ 11.5 µM)
[3]
  MIC80: 8 µg/mL (≈ 23.1 µM)
[4]
  MIC80: 64 µg/mL (≈ 185 µM)
[5]
  MIC80: 8 µg/mL (≈ 23.1 µM)

## CCCCCCCCCCCCN1CC(=O)N2CCc3cc(OC)c(OC)cc3C2C1 (stereo not given)
[1]
  MIC80: > 64 µg/mL
[2]
  MIC80: 32 µg/mL (≈ 74.3 µM)
[3]
  MIC80: 64 µg/mL (≈ 149 µM)
[4]
  MIC80: > 64 µg/mL
[5]
  MIC80: > 64 µg/mL

## CCCCN1CCN2CCc3cc(O)c(O)cc3C2C1 (stereo not given)
[1]
  MIC80: > 64 µg/mL
[2]
  MIC80: 4 µg/mL (≈ 14.5 µM)
[3]
  MIC80: > 64 µg/mL
[4]
  MIC80: > 64 µg/mL
[5]
  MIC80: > 64 µg/mL

## CCCCCCCCN1CC(=O)N2CCc3cc(OC)c(OC)cc3C2C1 (stereo not given)
[1]
  MIC80: 16 µg/mL (≈ 42.7 µM)
[2]
  MIC80: 8 µg/mL (≈ 21.4 µM)
[3]
  MIC80: 8 µg/mL (≈ 21.4 µM)
[4]
  MIC80: 64 µg/mL (≈ 171 µM)
[5]
  MIC80: 32 µg/mL (≈ 85.4 µM)

## CCCCCCCCCN1CC(=O)N2CCc3ccc(F)cc3C2C1 (stereo not given)
[1]
  MIC80: 32 µg/mL (≈ 92.4 µM)
[2]
  MIC80: 2 µg/mL (≈ 5.77 µM)
[3]
  MIC80: 0.5 µg/mL (≈ 1.44 µM)
[4]
  MIC80: 16 µg/mL (≈ 46.2 µM)
[5]
  MIC80: 4 µg/mL (≈ 11.5 µM)

## CCCCCCCCCN1CCN2CCc3cc(OC)c(OC)cc3C2C1 (stereo not given)
[1]
  MIC80: 32 µg/mL (≈ 85.4 µM)
[2]
  MIC80: 4 µg/mL (≈ 10.7 µM)
[3]
  MIC80: 2 µg/mL (≈ 5.34 µM)
[4]
  MIC80: 8 µg/mL (≈ 21.4 µM)
[5]
  MIC80: 8 µg/mL (≈ 21.4 µM)

## CCCCCCCCCN1CCN2CCc3ccc(F)cc3C2C1 (stereo not given)
[1]
  MIC80: 8 µg/mL (≈ 24.1 µM)
[2]
  MIC80: 4 µg/mL (≈ 12 µM)
[3]
  MIC80: 2 µg/mL (≈ 6.01 µM)
[4]
  MIC80: 16 µg/mL (≈ 48.1 µM)
[5]
  MIC80: 8 µg/mL (≈ 24.1 µM)

## CCCCCCCCCCCCN1CCN2CCc3cc(OC)c(OC)cc3C2C1 (stereo not given)
[1]
  MIC80: > 64 µg/mL
[2]
  MIC80: 16 µg/mL (≈ 38.4 µM)
[3]
  MIC80: 32 µg/mL (≈ 76.8 µM)
[4]
  MIC80: > 64 µg/mL
[5]
  MIC80: > 64 µg/mL

## CCCCCCCCCCCCN1CCN2CCc3ccc(F)cc3C2C1 (stereo not given)
[1]
  MIC80: > 64 µg/mL
[2]
  MIC80: 64 µg/mL (≈ 171 µM)
[3]
  MIC80: 4 µg/mL (≈ 10.7 µM)
[4]
  MIC80: > 64 µg/mL
[5]
  MIC80: 64 µg/mL (≈ 171 µM)

## CCCCCCCCCCCCN1CC(=O)N2CCc3ccc(F)cc3C2C1 (stereo not given)
[1]
  MIC80: > 64 µg/mL
[2]
  MIC80: > 64 µg/mL
[3]
  MIC80: 64 µg/mL (≈ 165 µM)
[4]
  MIC80: 32 µg/mL (≈ 82.4 µM)
[5]
  MIC80: 64 µg/mL (≈ 165 µM)

## CCCCCCCCCCCCN1CCN2CCc3cc(O)c(O)cc3C2C1 (stereo not given)
[1]
  MIC80: 64 µg/mL (≈ 165 µM)
[2]
  MIC80: 16 µg/mL (≈ 41.2 µM)
[3]
  MIC80: 16 µg/mL (≈ 41.2 µM)
[4]
  MIC80: 64 µg/mL (≈ 165 µM)
[5]
  MIC80: 16 µg/mL (≈ 41.2 µM)

## CCCCN1CCN2CCc3cc(OC)c(OC)cc3C2C1 (stereo not given)
[1]
  MIC80: > 64 µg/mL
[2]
  MIC80: > 64 µg/mL
[3]
  MIC80: > 64 µg/mL
[4]
  MIC80: > 64 µg/mL
[5]
  MIC80: > 64 µg/mL

## OC(Cn1cncn1)(Cn1cncn1)c1ccc(F)cc1F [FLUCONAZOLE]
[1]
  MIC80: 2 µg/mL (≈ 6.53 µM)
[2]
  MIC80: 4 µg/mL (≈ 13.1 µM)
[3]
  MIC80: 2 µg/mL (≈ 6.53 µM)
[4]
  MIC80: > 64 µg/mL
[5]
  MIC80: 32 µg/mL (≈ 104 µM)
